{
  "source": "patent US11273163B2",
  "about": "“Antiviral treatment” (priority 2020, dated 2022)",
  "key": {"SARS-CoV-2 [1]": {"test_system": "SARS-CoV-2", "assay": "microbe, parasite or virus in culture", "format": "cell-based", "conditions": "for reduction of viral particle numbers: up to; for viral particle/μL: 48 h post infection, median"}, "SARS-CoV-2 B.1.351": {"test_system": "SARS-CoV-2 B.1.351", "assay": "microbe, parasite or virus in culture", "format": "cell-based", "conditions": "Severe acute respiratory syndrome coronavirus 2, Vero/TMPRSS2, 48 h, read-out: inhibition of infection (relative to no azelastine treated cells)"}, "SARS-CoV-2 B.1.1.7": {"test_system": "SARS-CoV-2 B.1.1.7", "assay": "microbe, parasite or virus in culture", "format": "cell-based", "conditions": "Severe acute respiratory syndrome coronavirus 2, Vero/TMPRSS2, 48 h, B1.1.7, 48 h, read-out: inhibition of infection (relative to no azelastine treated cells)"}, "[2]": {"test_system": "reconstituted human nasal tissue (MucilAir)", "conditions": "without virus infection"}, "SARS-CoV-2 [3]": {"test_system": "SARS-CoV-2", "format": "cell-based", "conditions": "for cytopathogenic score: Vero E6, MOI 0.1, 48 hours post infection"}, "SARS-CoV-2 [4]": {"test_system": "SARS-CoV-2", "format": "cell-based", "conditions": "Calu-3, MOI 0.01, 48 h"}, "RSV Long strain [5]": {"test_system": "RSV Long strain", "format": "cell-based, Respiratory Syncytial Virus", "conditions": "all 3 settings (preventive, co-administration, therapeutic), 48 h"}, "RSV Long strain [6]": {"test_system": "RSV Long strain", "format": "cell-based, Respiratory Syncytial Virus", "conditions": "6.4 μM"}, "HEp-2 cells": {"test_system": "HEp-2 cells", "assay": "Cytotoxicity towards HEp-2 cells, flow cytometry with propidium iodide", "format": "cell-based", "conditions": "non-infected, 48 h", "protocol": "Mean and SEM were calculated from 3 independent experiments."}, "influenza H1N1": {"test_system": "influenza H1N1", "format": "cell-based, influenza A virus H1N1", "conditions": "hydrochloride"}},
  "note": "Values joined by “and” are separate entries in the source; they are usually repeats but may differ in a detail not shown here. Identical values can stand only once. Like-named read-outs stand apart in the source and are kept apart here.",
  "data": [
    {"molecule": "CN1CCCC(n2nc(Cc3ccc(Cl)cc3)c3ccccc3c2=O)CC1", "note": "(stereo not shown) [Azelastine, 4-[(4-chlorophenyl)methyl]-2-(1-methylazepan-4-yl)phthalazin-1-one]", "values": [
      {"measurement": "EC50", "setting": "SARS-CoV-2 [1]; Severe acute respiratory syndrome coronavirus 2, Vero C1008, wild-type SARS-CoV-2, read-out: EC50 observed for the wild-type virus", "value": "~6", "unit": "µM"},
      {"measurement": "reduction of viral particle numbers", "setting": "SARS-CoV-2 [1]; co-administration (simulating prevention)", "value": "> 99", "unit": "%"},
      {"measurement": "viral particle/μL", "setting": "SARS-CoV-2 [1]; co-administration, 3.125 μM", "value": 98.4, "unit": "viral particle/μL"},
      {"measurement": "viral particle/μL", "setting": "SARS-CoV-2 [1]; co-administration, 6.25 μM", "value": 15.45, "unit": "viral particle/μL"},
      {"measurement": "viral particle/μL", "setting": "SARS-CoV-2 [1]; co-administration, 12.5 μM", "value": 12.25, "unit": "viral particle/μL"},
      {"measurement": "viral particle/μL", "setting": "SARS-CoV-2 [1]; co-administration, 25 μM", "value": 0.2, "unit": "viral particle/μL"},
      {"measurement": "viral particle/μL", "setting": "SARS-CoV-2 [1]; post-infection administration, 3.125 μM", "value": 138, "unit": "viral particle/μL"},
      {"measurement": "viral particle/μL", "setting": "SARS-CoV-2 [1]; post-infection administration, 6.25 μM", "value": 68.4, "unit": "viral particle/μL"},
      {"measurement": "viral particle/μL", "setting": "SARS-CoV-2 [1]; post-infection administration, 12.5 μM", "value": 52, "unit": "viral particle/μL"},
      {"measurement": "viral particle/μL", "setting": "SARS-CoV-2 [1]; post-infection administration, 25 μM", "value": 6.865, "unit": "viral particle/μL"},
      {"measurement": "reduction of viral particle numbers", "setting": "SARS-CoV-2 [1]; post-infection administration", "value": "> 97", "unit": "%"},
      {"measurement": "inhibition at 3.125 µM", "setting": "SARS-CoV-2 B.1.351; preventive setting", "value": 32.9, "unit": "%"},
      {"measurement": "inhibition at 6.25 µM", "setting": "SARS-CoV-2 B.1.351; preventive setting", "value": 74.9, "unit": "%"},
      {"measurement": "inhibition at 12.5 µM", "setting": "SARS-CoV-2 B.1.351; preventive setting", "value": 99.1, "unit": "%"},
      {"measurement": "inhibition at 3.125 µM", "setting": "SARS-CoV-2 B.1.351; therapeutic setting", "value": 22, "unit": "%"},
      {"measurement": "inhibition at 6.25 µM", "setting": "SARS-CoV-2 B.1.351; therapeutic setting", "value": 55, "unit": "%"},
      {"measurement": "inhibition at 12.5 µM", "setting": "SARS-CoV-2 B.1.351; therapeutic setting", "value": 97.6, "unit": "%"},
      {"measurement": "inhibition at 3.125 µM", "setting": "SARS-CoV-2 B.1.1.7; preventive setting", "value": 23.8, "unit": "%"},
      {"measurement": "inhibition at 6.25 µM", "setting": "SARS-CoV-2 B.1.1.7; preventive setting", "value": 72.8, "unit": "%"},
      {"measurement": "inhibition at 12.5 µM", "setting": "SARS-CoV-2 B.1.1.7; preventive setting", "value": 98.8, "unit": "%"},
      {"measurement": "inhibition at 3.125 µM", "setting": "SARS-CoV-2 B.1.1.7; therapeutic setting", "value": 2.57, "unit": "%"},
      {"measurement": "inhibition at 6.25 µM", "setting": "SARS-CoV-2 B.1.1.7; therapeutic setting", "value": 47.4, "unit": "%"},
      {"measurement": "inhibition at 12.5 µM", "setting": "SARS-CoV-2 B.1.1.7; therapeutic setting", "value": 91.7, "unit": "%"},
      {"measurement": "tissue morphology versus control", "setting": "[2]", "value": "No difference in tissue morphology"}
    ]},
    {"molecule": "CN1CCCC(n2nc(Cc3ccc(Cl)cc3)c3ccccc3c2=O)CC1.Cl", "note": "(stereo not shown) [Azelastine-HCl, 4-[(4-chlorophenyl)methyl]-2-(1-methylazepan-4-yl)phthalazin-1-one; hydrochloride]", "values": [
      {"measurement": "cytopathogenic score", "setting": "SARS-CoV-2 [3]; 3.125 μM", "value": 2},
      {"measurement": "cytopathogenic score", "setting": "SARS-CoV-2 [3]; 6.25 μM", "value": 2},
      {"measurement": "reduction of viral particle numbers", "setting": "SARS-CoV-2 [4]; 25 μM", "value": "over 90%"},
      {"measurement": "reduction of viral particle numbers", "setting": "SARS-CoV-2 [4]; 50 μM, up to", "value": "> 99", "unit": "%"},
      {"measurement": "RSV infection of cells by spot count, compared to vehicle (DMSO) treated controls", "setting": "RSV Long strain [5]; 3.2 μM", "value": "~50", "unit": "%"},
      {"measurement": "RSV infection of cells by spot count, compared to vehicle (DMSO) treated controls", "setting": "RSV Long strain [5]; 6.4 μM", "value": "~50", "unit": "%"},
      {"measurement": "Ct (cycle threshold in PCR reaction)", "setting": "RSV Long strain [6]; co-administration, experiment #1", "value": 27.99},
      {"measurement": "Ct (cycle threshold in PCR reaction)", "setting": "RSV Long strain [6]; co-administration, experiment #2", "value": 27.21},
      {"measurement": "Ct (cycle threshold in PCR reaction)", "setting": "RSV Long strain [6]; preventive, experiment #1", "value": 27.5},
      {"measurement": "Ct (cycle threshold in PCR reaction)", "setting": "RSV Long strain [6]; preventive, experiment #2", "value": 27.17},
      {"measurement": "Ct (cycle threshold in PCR reaction)", "setting": "RSV Long strain [6]; therapeutic, experiment #1", "value": 27.95},
      {"measurement": "Ct (cycle threshold in PCR reaction)", "setting": "RSV Long strain [6]; therapeutic, experiment #2", "value": 27.27},
      {"measurement": "cytotoxicity to HEp-2 cells", "setting": "HEp-2 cells; 12.8 μM", "value": "showed cytotoxicity"},
      {"measurement": "cytotoxicity to HEp-2 cells", "setting": "HEp-2 cells; 25.6 μM", "value": "showed cytotoxicity"},
      {"measurement": "reduction in viral genome copy", "setting": "influenza H1N1", "value": "98.74% and 87.4%"}
    ]},
    {"molecule": "Maraviroc", "values": [
      {"measurement": "cytopathogenic score", "setting": "SARS-CoV-2 [3]; 3.125 μM", "value": 4},
      {"measurement": "cytopathogenic score", "setting": "SARS-CoV-2 [3]; 6.25 μM", "value": 4},
      {"measurement": "cytopathogenic score", "setting": "SARS-CoV-2 [3]; 12.5 μM", "value": 3},
      {"measurement": "cytopathogenic score", "setting": "SARS-CoV-2 [3]; 25 μM", "value": 3},
      {"measurement": "cytopathogenic score", "setting": "SARS-CoV-2 [3]; 50 μM", "value": 3},
      {"measurement": "protective effect", "setting": "SARS-CoV-2 [3]; higher concentrations (12.5 to 50 μM)", "value": "only marginal protective effect"},
      {"measurement": "protective effect", "setting": "SARS-CoV-2 [3]; lower concentrations", "value": "not effective at all"}
    ]}
  ]
}
